Structures are written as SMILES. Values after ≈ are worked out from the molar mass of the structure shown. Non-standard residues stand in square brackets, D forms with d. Residues, ends and D or L forms follow the SMILES beside them. *: point of attachment. Octanoyl(7-Me) = CC(C)CCCCCC(=O)*; dOrn = NCCC[C@@H](N)C(=O)O; Octanoyl = CCCCCCCC(=O)*; Orn = NCCC[C@H](N)C(=O)O; Dap = NC[C@H](N)C(=O)O; Alloc = C=CCOC(=O)*

In this assay the test system is Escherichia coli ATCC 25922. In kind it is cell-based. The settings on record: ATCC 25922. The gist of the method:
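Broth microdilution in MHB per CLSI; inoculum 2×10^5 CFU mL^−1 from log-phase TSB cultures at OD600 0.5. Plates incubated 16 hours at 37° C with shaking at 220 rpm. MIC is the lowest concentration preventing visible growth.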
Regarding `C=CCOC(=O)NC[C@H](NC(=O)[C@H](Cc1c[nH]c2ccccc12)NC(=O)[C@@H](CCCN)NC(=O)CNC(=O)[C@H](CCCN)NC(=O)[C@@H](CCCN)NC(=O)[C@@H](Cc1c[nH]c2ccccc12)NC(=O)[C@@H](Cc1ccc(O)cc1)NC(=O)[C@@H](CO)NC(=O)CCCCCCC)C(=O)N[C@H](C(=O)N[C@@H](CC(N)=O)C(N)=O)[C@@H](C)CC` [ΔG12-G13-Dap(Alloc)9-C8] (Octanoyl-[dS][dY][dW][dOrn][Orn]G[dOrn]W[Dap](Alloc)IN-NH2), the “Minimum inhibitory concentration (MIC)” value was determined as 4 µg/mL (≈ 2.56 µM).

Turning to `C=CCOC(=O)NC[C@H](NC(=O)[C@H](Cc1c[nH]c2ccccc12)NC(=O)[C@@H](CCCN)NC(=O)CNC(=O)[C@H](CCCN)NC(=O)[C@@H](CCCN)NC(=O)[C@@H](Cc1c[nH]c2ccccc12)NC(=O)[C@@H](Cc1ccc(O)cc1)NC(=O)[C@@H](CO)NC(=O)CCCCCC(C)C)C(=O)N[C@H](C(=O)N[C@@H](CC(N)=O)C(N)=O)[C@@H](C)CC` [ΔG12-G13-Dap(Alloc)9-isoC9] ({Octanoyl(7-Me)}-[dS][dY][dW][dOrn][Orn]G[dOrn]W[Dap](Alloc)IN-NH2), the “Minimum inhibitory concentration (MIC)” value came out at 4 µg/mL (≈ 2.54 µM).

For the molecule `CCCCCCCC(=O)N[C@H](CO)C(=O)N[C@H](Cc1ccc(O)cc1)C(=O)N[C@H](Cc1c[nH]c2ccccc12)C(=O)N[C@H](CCCN)C(=O)N[C@@H](CCCN)C(=O)NCC(=O)N[C@H](CCCN)C(=O)N[C@@H](Cc1c[nH]c2ccccc12)C(=O)N[C@@H](CO)C(=O)N[C@H](C(=O)N[C@@H](CC(N)=O)C(N)=O)[C@@H](C)CC` [ΔG12-G13-Ser9-C8] (Octanoyl-[dS][dY][dW][dOrn][Orn]G[dOrn]WSIN-NH2), the “Minimum inhibitory concentration (MIC)” value came out at 4 µg/mL (≈ 2.7 µM).

Take `CC[C@H](C)[C@H](NC(=O)[C@H](CO)NC(=O)[C@H](Cc1c[nH]c2ccccc12)NC(=O)[C@@H](CCCN)NC(=O)CNC(=O)[C@H](CCCN)NC(=O)[C@@H](CCCN)NC(=O)[C@@H](Cc1c[nH]c2ccccc12)NC(=O)[C@@H](Cc1ccc(O)cc1)NC(=O)[C@@H](CO)NC(=O)CCCCCC(C)C)C(=O)N[C@@H](CC(N)=O)C(N)=O` [ΔG12-G13-Ser9-isoC9] ({Octanoyl(7-Me)}-[dS][dY][dW][dOrn][Orn]G[dOrn]WSIN-NH2): the “Minimum inhibitory concentration (MIC)” value stood at 4 µg/mL (≈ 2.68 µM).

For the molecule `CC[C@H](C)[C@H](NC(=O)[C@@H](NC(=O)[C@H](Cc1c[nH]c2ccccc12)NC(=O)[C@@H](CCCN)NC(=O)CNC(=O)[C@H](CCCN)NC(=O)[C@@H](CCCN)NC(=O)[C@@H](Cc1c[nH]c2ccccc12)NC(=O)[C@@H](Cc1ccc(O)cc1)NC(=O)[C@@H](CO)NC(=O)CCCCCC(C)C)[C@@H](C)O)C(=O)N[C@@H](CC(N)=O)C(=O)NCC(N)=O` [ΔG13, FA-sywoOGoWTING-CONH2] ({Octanoyl(7-Me)}-[dS][dY][dW][dOrn][Orn]G[dOrn]WTING-NH2), the “Minimum inhibitory concentration (MIC)” value was 2 µg/mL (≈ 1.28 µM).

As to `C=CCOC(=O)NC[C@H](NC(=O)[C@H](Cc1c[nH]c2ccccc12)NC(=O)[C@@H](CCCN)NC(=O)CNC(=O)[C@H](CCCN)NC(=O)[C@@H](CCCN)NC(=O)[C@@H](Cc1c[nH]c2ccccc12)NC(=O)[C@@H](Cc1ccc(O)cc1)NC(=O)[C@@H](CO)NC(=O)CCCCCCC)C(=O)N[C@H](C(=O)N[C@@H](CC(N)=O)C(=O)NCC(N)=O)[C@@H](C)CC` [ΔG13-Dap(Alloc)9-C8] (Octanoyl-[dS][dY][dW][dOrn][Orn]G[dOrn]W[Dap](Alloc)ING-NH2), the “Minimum inhibitory concentration (MIC)” value lay in the range of 2 to 4 µg/mL.

Take `C=CCOC(=O)NC[C@H](NC(=O)[C@H](Cc1c[nH]c2ccccc12)NC(=O)[C@@H](CCCN)NC(=O)CNC(=O)[C@H](CCCN)NC(=O)[C@@H](CCCN)NC(=O)[C@@H](Cc1c[nH]c2ccccc12)NC(=O)[C@@H](Cc1ccc(O)cc1)NC(=O)[C@@H](CO)NC(=O)CCCCCC(C)C)C(=O)N[C@H](C(=O)N[C@@H](CC(N)=O)C(=O)NCC(N)=O)[C@@H](C)CC` [ΔG13-Dap(Alloc)9-isoC9] ({Octanoyl(7-Me)}-[dS][dY][dW][dOrn][Orn]G[dOrn]W[Dap](Alloc)ING-NH2): the “Minimum inhibitory concentration (MIC)” value came out at 2 µg/mL (≈ 1.22 µM).
